With `Cc1cc(C(F)(C(F)(F)F)C(F)(F)F)ccc1NC(=O)c1nn(-c2ccccc2)c(Br)c1C(=O)NC(C)C`, the melting point was 164 to 166 °C.
To `Cc1cc(C(F)(C(F)(F)F)C(F)(F)F)ccc1NC(=O)c1ccc[n+]([O-])c1C(=O)NC(C)C` belongs 108 to 110 °C.

(Values after patent US6747041B1, “Heterocyclic dicarboxylic acid diamide derivatives, agricultural/horticultural insecticides and method of using the same” (Nihon Nohyaku Co., Ltd., priority 1999, dated 2004).)
